From ChEMBL document CHEMBL5532678, “Comprehensive Insights that Targeting PIM for Cancer Therapy: Prospects and Obstacles” (J Med Chem, 2024)

Biological target: T1, Receptor-type tyrosine-protein kinase FLT3 (Homo sapiens, UniProt P36888)
T1 sequence (P36888 whole entry): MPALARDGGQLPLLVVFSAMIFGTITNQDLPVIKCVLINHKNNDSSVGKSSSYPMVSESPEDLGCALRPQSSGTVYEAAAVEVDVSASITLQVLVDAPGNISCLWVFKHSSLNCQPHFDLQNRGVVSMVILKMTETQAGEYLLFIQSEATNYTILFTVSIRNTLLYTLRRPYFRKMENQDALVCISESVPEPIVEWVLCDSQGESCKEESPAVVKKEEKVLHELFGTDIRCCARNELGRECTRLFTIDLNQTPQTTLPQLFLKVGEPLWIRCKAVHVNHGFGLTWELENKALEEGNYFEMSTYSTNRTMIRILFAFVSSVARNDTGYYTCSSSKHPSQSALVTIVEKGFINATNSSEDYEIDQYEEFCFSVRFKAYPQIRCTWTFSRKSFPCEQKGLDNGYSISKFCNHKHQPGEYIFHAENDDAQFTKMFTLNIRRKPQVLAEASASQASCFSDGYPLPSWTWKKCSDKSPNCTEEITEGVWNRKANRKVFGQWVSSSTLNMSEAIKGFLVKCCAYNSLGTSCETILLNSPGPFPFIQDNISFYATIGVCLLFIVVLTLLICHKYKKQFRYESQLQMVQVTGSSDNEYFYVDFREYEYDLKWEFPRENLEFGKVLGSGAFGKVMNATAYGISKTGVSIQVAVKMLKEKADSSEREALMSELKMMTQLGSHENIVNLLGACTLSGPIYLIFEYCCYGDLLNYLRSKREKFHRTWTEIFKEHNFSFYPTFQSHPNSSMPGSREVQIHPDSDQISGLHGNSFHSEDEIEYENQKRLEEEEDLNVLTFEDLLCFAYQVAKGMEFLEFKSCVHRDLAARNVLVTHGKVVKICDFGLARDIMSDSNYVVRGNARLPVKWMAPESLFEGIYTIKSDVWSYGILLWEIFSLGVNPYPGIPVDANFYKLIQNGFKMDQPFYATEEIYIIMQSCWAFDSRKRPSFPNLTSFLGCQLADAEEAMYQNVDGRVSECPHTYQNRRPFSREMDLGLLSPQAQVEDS
Test: Inhibition of FLT3 (unknown origin)

IC50: 0.11 nM
SMILES: N[C@H]1CC[C@@H](Nc2cncc(-c3cccc(CC4SC(=O)NC4=O)c3)n2)CC1 (stereo partly specified)
